Consider two compounds from the NIST ThermoML archive (doi:10.1021/je4009238).

Numbers after ± are expanded uncertainties.

The conditions of series [1]: 101 kPa, Liquid.
Series [2] is described as follows: refractive index (Na D-line) (dimensionless). As to conditions: 101.33 kPa, Liquid.

For the compound `CN(C)C=O` [dimethylformamide], the mass density in series [1] (288.15 K) is 953.79 ± 0.83 kg/m3; in series [1] (298.15 K), 944.26 ± 0.89 kg/m3; in series [1] (308.15 K) it was 934.69 ± 0.95 kg/m3; in series [1] (318.15 K) it was 925.16 ± 1 kg/m3. Besides, the viscosity amounted to 0.936 ± 0.11 mPa·s in series [1] (288.15 K), 0.825 ± 0.1 mPa·s in series [1] (298.15 K), 0.736 ± 0.098 mPa·s in series [1] (308.15 K) and 0.665 ± 0.095 mPa·s in series [1] (318.15 K). Moreover, the refractive index turned out to be 1.43304 ± 0.00063 in series [2] (288.15 K), 1.42858 ± 0.00063 in series [2] (298.15 K), 1.42381 ± 0.00063 in series [2] (308.15 K) and 1.41909 ± 0.00063 in series [2] (318.15 K).
On to `CCCCCCCC[n+]1ccn(C)c1.[Cl-]` [1-methyl-3-octylimidazolium chloride], for which the mass density in series [1] (288.15 K) turned out to be 1022.06 ± 10 kg/m3; in series [1] (298.15 K), 1015.97 ± 10 kg/m3; in series [1] (308.15 K), 1009.8 ± 10 kg/m3; in series [1] (318.15 K), 1003.62 ± 10 kg/m3. Moreover, the viscosity in series [1] (308.15 K) is reported as 155.03 ± 38 mPa·s; in series [1] (318.15 K), 65.95 ± 7.6 mPa·s. For the same compound, the refractive index in series [2] (288.15 K) was 1.49008 ± 0.01; in series [2] (298.15 K), 1.48709 ± 0.01; in series [2] (308.15 K), 1.48413 ± 0.01; in series [2] (318.15 K) it was 1.48122 ± 0.01.

By mass density is commonly meant the mass of a sample divided by its volume. The viscosity is the resistance of a fluid to flow. What is called refractive index is a measure of how strongly the sample bends light.
